# Results reported in the supplement of paper PMC10307832.
# Experiments:
# Assay in all cases: relative viability (nuclei count vs DMSO), 5 days (fraction); higher = more cells survive
# Bortezomib + Alpelisib = compound: CC(C)C[C@H](NC(=O)[C@H](Cc1ccccc1)NC(=O)c1cnccn1)B(O)O [Bortezomib] + Cc1nc(NC(=O)N2CCC[C@H]2C(N)=O)sc1-c1ccnc(C(C)(C)C(F)(F)F)c1 [Alpelisib] (partner 2 µM)
# Procedure, shortened: (§1)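 Cells from lung cancer lines were seeded into 1536-well plates and, one day later, dosed by pin tool. Treatments were either a single drug or a fixed dose of an anchor drug with five library-drug doses (not always all listed) in √10 steps. After 5 days, nuclei were stained in a one-step fixation (final 0.05% Triton X-100, 1% formaldehyde, 1 ug/ml Hoechst) and counted on 4× images, and relative viability is the treated-to-vehicle nuclei ratio, as the median of duplicate plates.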
# [1] = compound: CC1=CC(=NN1)NC2=CC(=NC(=N2)/C=C/C3=CC=CC=C3)N4CCN(CC4)C + CC1(C)CCC(c2ccc(Cl)cc2)=C(CN2CCN(c3ccc(C(=O)NS(=O)(=O)c4ccc(N[C@H](CCN5CCOCC5)CSc5ccccc5)c(S(=O)(=O)C(F)(F)F)c4)cc3)CC2)C1 [Navitoclax] (partner 0.5 µM)
# Procedure, shortened: as §1
# [2] = compound: CC1=CC(=NN1)NC2=CC(=NC(=N2)/C=C/C3=CC=CC=C3)N4CCN(CC4)C + C[C@]1(O)C[C@@H](c2nc(-c3ccc4ccc(-c5ccccc5)nc4c3)c3c(N)nccn32)C1 [Linsitinib] (partner 1 µM)
# Procedure, shortened: as §1
# Obatoclax + Vorinostat = compound: COC1=CC(c2cc3ccccc3[nH]2)=N/C1=C\c1[nH]c(C)cc1C [Obatoclax] + O=C(CCCCCCC(=O)Nc1ccccc1)NO [Vorinostat] (partner 1 µM)
# Procedure, shortened: as §1
Cell Line,relative viability (Bortezomib + Alpelisib; first compound 0.0002 µM),relative viability (Bortezomib + Alpelisib; first compound 0.000632 µM),relative viability (Bortezomib + Alpelisib; first compound 0.002 µM),relative viability (Bortezomib + Alpelisib; first compound 0.006325 µM),relative viability (Bortezomib + Alpelisib; first compound 0.02 µM),relative viability ([1]; first compound 0.08 µM),relative viability ([1]; first compound 0.253 µM),relative viability ([1]; first compound 0.8 µM),relative viability ([1]; first compound 2.53 µM),relative viability ([1]; first compound 8 µM),relative viability ([2]; first compound 0.08 µM),relative viability ([2]; first compound 0.253 µM),relative viability ([2]; first compound 0.8 µM),relative viability ([2]; first compound 2.53 µM),relative viability ([2]; first compound 8 µM),relative viability (Obatoclax + Vorinostat; first compound 0.01 µM),relative viability (Obatoclax + Vorinostat; first compound 0.03162 µM),relative viability (Obatoclax + Vorinostat; first compound 0.1 µM),relative viability (Obatoclax + Vorinostat; first compound 0.3162 µM),relative viability (Obatoclax + Vorinostat; first compound 1 µM)
Calu-6,0.961,1.01,1.04,0.123,0.0909,0.765,0.623,0.523,0.0678,0.0602,0.98,0.997,0.883,0.441,0.158,–,–,–,–,–
ChaGo-K-1,–,–,–,–,–,0.893,1.12,1.24,0.298,0.272,–,–,–,–,–,0.756,0.587,0.637,0.742,0.795
EBC-1,0.869,0.727,0.29,0.126,0.0969,0.387,0.396,0.285,0.154,0.147,0.852,0.874,0.923,0.71,0.317,–,–,–,–,–
EKVX,0.94,0.934,0.932,0.733,0.0816,0.946,1.24,1.03,0.755,0.131,1.02,1.13,1.1,0.788,0.144,0.747,0.592,0.765,0.725,0.649
EMC-BAC-2,0.657,0.73,0.788,0.17,0.117,1.1,1.11,1.07,0.719,0.266,0.821,0.91,0.77,0.594,0.204,0.437,0.358,–,0.446,0.405
EPLC-272H,–,–,1.09,0.943,0.115,1.07,1.32,0.987,0.598,0.339,1.11,1.32,1.06,0.675,0.367,0.567,0.561,0.399,0.175,0.176
H3255,0.688,0.696,0.479,0.156,0.163,0.518,0.61,0.517,0.43,0.0832,0.95,1.09,0.975,0.886,0.391,0.975,0.719,–,0.823,0.858
HARA,0.808,0.673,0.949,0.0583,0.0865,1.17,1.16,1.13,0.982,0.238,1.07,0.899,1.03,0.139,0.0705,0.553,0.392,0.566,0.441,0.605
HCC-15,0.845,0.911,0.833,0.307,0.0846,0.67,0.731,0.612,0.409,0.118,0.908,0.967,0.853,0.469,0.149,0.875,0.815,0.83,0.747,0.786
